Data taken from US20080207683A1, “BIARYL-S[…]-PYRAZOLO-PYRIDINE MODULATORS OF CATHEPSIN S” (priority 2007, published 2008).

What follows are compounds tested against T1, Human CatS (Homo sapiens, UniProt P25774) (assay: CatS inhibition of hydrolysis of fluorescent substrate Z-Val-Val-Arg-AFC). Settings: not given.
T1 construct: made in house; host or cells: Sf9 insect cells (baculovirus vector pFB+HT)
Assay type: biochemical
Experimental: Human CatS was cloned into pFB+HT (from Stratagene clone), expressed in Sf9 cells, and purified over a Ni column. Fractions were concentrated and activated at pH 4.0 for 6 hr and then purified over a thiopropylsepharose column and eluted with 1×TBS, 500 mM NaCl, 1 mM EDTA, 25 mM DTT pH 7.6. Glycerol (50%) was added in a 1:1 (vol/vol) ratio (25% glycerol final) and protein was stored at −80° C. in 5 μL aliquots. […] The increase in fluorescence over time was monitored using λexcitation=400 nm and λemission=505 nm.
In equation 1, v is the initial rate measured in the presence of [I]0, the inhibitor concentration, using an enzyme concentration [E]0. v0 is the initial rate measured in the absence of inhibitor.

T1 sequence (P25774 115-331): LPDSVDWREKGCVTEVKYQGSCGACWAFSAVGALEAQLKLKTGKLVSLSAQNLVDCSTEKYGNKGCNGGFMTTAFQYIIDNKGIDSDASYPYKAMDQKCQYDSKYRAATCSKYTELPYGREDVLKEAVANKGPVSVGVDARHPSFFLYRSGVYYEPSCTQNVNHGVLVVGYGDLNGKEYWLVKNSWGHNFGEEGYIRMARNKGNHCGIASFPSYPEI

| Structure (SMILES) | Ki |
| --- | --- |
| COc1ccc(CNC(=O)c2cccc(-c3cc(-c4nn(CCCN5CCCC5)c5c4CN(S(C)(=O)=O)CC5)ccc3Cl)c2)cc1 [Example 15, 2′-Chloro-5′-[5-methanesulfonyl-1-(3-pyrrolidin-1-yl-propyl)-4,5,6,7-tetrahydro-1H-pyrazolo[4,3-c]pyridin-3-yl]-biphenyl-3-carboxylic acid 4-methoxy-benzylamide] | 450 nM |
| Cc1ccc2[nH]c([C@H](C)NC(=O)c3cccc(-c4cc(-c5nn(CCCN6CCCC6)c6c5CN(S(C)(=O)=O)CC6)ccc4Cl)c3)nc2c1 [Example 20, (S)-2′-Chloro-5′-[5-methanesulfonyl-1-(3-pyrrolidin-1-yl-propyl)-4,5,6,7-tetrahydro-1H-pyrazolo[4,3-c]pyridin-3-yl]-biphenyl-3-carboxylic acid [1-(5-methyl-1H-benzoimidazol-2-yl)-ethyl]-amide] | 188 nM |

Same assay, conditions: apparent Ki, Morrison equation fit of initial rates; 10 μM Z-Val-Val-Arg-AFC, pH 5.0, 1.5 nM CatS; read-out: CatS Ki^app

| Structure (SMILES) | Ki |
| --- | --- |
| COc1ccc(NCCNC(=O)c2cccc(-c3cc(-c4nn(CCCN5CCCC5)c5c4CN(S(C)(=O)=O)CC5)ccc3Cl)c2)cc1Cl [Example 4, 2′-Chloro-5′-[5-methanesulfonyl-1-(3-pyrrolidin-1-yl-propyl)-4,5,6,7-tetrahydro-1H-pyrazolo[4,3-c]pyridin-3-yl]-biphenyl-3-carboxylic acid [2-(3-chloro-4-methoxy-phenylamino)-ethyl]-amide] | 253 nM |
| CS(=O)(=O)N1CCc2c(c(-c3ccc(Cl)c(-c4cccc(C(=O)NCCN5CCc6ccc(F)cc65)c4)c3)nn2CCCN2CCC(N3CCCC3=O)CC2)C1 [Example 33, 2′-Chloro-5′-(5-methanesulfonyl-1-{3-[4-(2-oxo-pyrrolidin-1-yl)-piperidin-1-yl]-propyl}-4,5,6,7-tetrahydro-1H-pyrazolo[4,3-c]pyridin-3-yl)-biphenyl-3-carboxylic acid [2-(6-fluoro-2,3-dihydro-indol-1-yl)-ethyl]-amide] | 163 nM |
| CS(=O)(=O)N1CCc2c(c(-c3ccc(Cl)c(-c4cccc(C(=O)NCc5nc6cc(Cl)ccc6[nH]5)c4)c3)nn2CCCN2CCCC2)C1 [Example 21, 2′-Chloro-5′-[5-methanesulfonyl-1-(3-pyrrolidin-1-yl-propyl)-4,5,6,7-tetrahydro-1H-pyrazolo[4,3-c]pyridin-3-yl]-biphenyl-3-carboxylic acid (5-chloro-1H-benzoimidazol-2-ylmethyl)-amide] | 70.3 nM |
| CN(C)S(=O)(=O)c1cccc2c1N(CCNC(=O)c1cccc(-c3cc(-c4nn(CCCN5CCCC5)c5c4CN(S(C)(=O)=O)CC5)ccc3Cl)c1)CC2 [Example 10, 2′-Chloro-5′-[5-methanesulfonyl-1-(3-pyrrolidin-1-yl-propyl)-4,5,6,7-tetrahydro-1H-pyrazolo[4,3-c]pyridin-3-yl]-biphenyl-3-carboxylic acid [2-(7-dimethylsulfamoyl-2,3-dihydro-indol-1-yl)-ethyl]-amide] | 49.4 nM |
| COc1ccc(NCCNC(=O)c2cccc(-c3cc(-c4nn(CCCN5CCC(O)C5)c5c4CN(S(C)(=O)=O)CC5)ccc3Cl)c2)cc1 (centres unmarked) [Example 28, 2′-Chloro-5′-{1-[3-(3-hydroxy-pyrrolidin-1-yl)-propyl]-5-methanesulfonyl-4,5,6,7-tetrahydro-1H-pyrazolo[4,3-c]pyridin-3-yl}-biphenyl-3-carboxylic acid [2-(4-methoxy-phenylamino)-ethyl]-amide] | 19.5 nM |
| CC(=O)N1CCc2c(c(-c3ccc(Cl)c(-c4cccc(C(=O)NCCN5CCc6cc(C)ccc65)c4)c3)nn2CCCN2CCCC2)C1 [Example 40, 5′-[5-Acetyl-1-(3-pyrrolidin-1-yl-propyl)-4,5,6,7-tetrahydro-1H-pyrazolo[4,3-c]pyridin-3-yl]-2′-chloro-biphenyl-3-carboxylic acid [2-(5-methyl-2,3-dihydro-indol-1-yl)-ethyl]-amide] | 228 nM |
| CS(=O)(=O)N1CCc2c(c(-c3ccc(Cl)c(-c4cccc(C(=O)NCCNc5cccnc5)c4)c3)nn2CCCN2CCCC2)C1 [Example 7, 2′-Chloro-5′-[5-methanesulfonyl-1-(3-pyrrolidin-1-yl-propyl)-4,5,6,7-tetrahydro-1H-pyrazolo[4,3-c]pyridin-3-yl]-biphenyl-3-carboxylic acid [2-(pyridin-3-ylamino)-ethyl]-amide] | 876 nM |
| CS(=O)(=O)N1CCc2c(c(-c3ccc(Cl)c(-c4cccc(C(=O)NCc5cccs5)c4)c3)nn2CCCN2CCCC2)C1 [Example 14, 2′-Chloro-5′-[5-methanesulfonyl-1-(3-pyrrolidin-1-yl-propyl)-4,5,6,7-tetrahydro-1H-pyrazolo[4,3-c]pyridin-3-yl]-biphenyl-3-carboxylic acid (thiophen-2-ylmethyl)-amide] | 350 nM |
| CC(=O)N1CCc2c(c(-c3ccc(Cl)c(-c4cccc(C(=O)NCc5nc6ccccc6s5)c4)c3)nn2CCCN2CCCC2)C1 [Example 38, 5′-[5-Acetyl-1-(3-pyrrolidin-1-yl-propyl)-4,5,6,7-tetrahydro-1H-pyrazolo[4,3-c]pyridin-3-yl]-2′-chloro-biphenyl-3-carboxylic acid (benzothiazol-2-ylmethyl)-amide] | 231 nM |
| CN(C)S(=O)(=O)c1cccc2c1N(CCNC(=O)c1cccc(-c3cc(-c4nn(CCCN5CCC(O)C5)c5c4CNCC5)ccc3Cl)c1)CC2 (centres unmarked) [Example 45, 2′-Chloro-5′-{1-[3-(3-hydroxy-pyrrolidin-1-yl)-propyl]-4,5,6,7-tetrahydro-1H-pyrazolo[4,3-c]pyridin-3-yl}-biphenyl-3-carboxylic acid [2-(7-dimethylsulfamoyl-2,3-dihydro-indol-1-yl)-ethyl]-amide] | 225 nM |
| CN(C)S(=O)(=O)c1ccc2c(c1)N(CCNC(=O)c1cccc(-c3cc(-c4nn(CCCN5CCC(O)C5)c5c4CNCC5)ccc3Cl)c1)CC2 (centres unmarked) [Example 46, 2′-Chloro-5′-{1-[3-(3-hydroxy-pyrrolidin-1-yl)-propyl]-4,5,6,7-tetrahydro-1H-pyrazolo[4,3-c]pyridin-3-yl}-biphenyl-3-carboxylic acid [2-(6-dimethylsulfamoyl-2,3-dihydro-indol-1-yl)-ethyl]-amide] | 510 nM |
| Cc1ccc2[nH]c(C(C)NC(=O)c3cccc(-c4cc(-c5nn(CCCN6CCC(N7CCCC7=O)CC6)c6c5CN(S(C)(=O)=O)CC6)ccc4Cl)c3)nc2c1 (centres unmarked) [Example 35, 2′-Chloro-5′-(5-methanesulfonyl-1-{3-[4-(2-oxo-pyrrolidin-1-yl)-piperidin-1-yl]-propyl}-4,5,6,7-tetrahydro-1H-pyrazolo[4,3-c]pyridin-3-yl)-biphenyl-3-carboxylic acid [1-(5-methyl-1H-benzoimidazol-2-yl)-ethyl]-amide] | 123 nM |
| C[C@@H](NC(=O)c1cccc(-c2cc(-c3nn(CCCN4CCCC4)c4c3CN(S(C)(=O)=O)CC4)ccc2Cl)c1)c1nc(-c2ccccc2)cs1 [Example 24, (R)-2′-Chloro-5′-[5-methanesulfonyl-1-(3-pyrrolidin-1-yl-propyl)-4,5,6,7-tetrahydro-1H-pyrazolo[4,3-c]pyridin-3-yl]-biphenyl-3-carboxylic acid [1-(4-phenyl-thiazol-2-yl)-ethyl]-amide] | 175 nM |
| CS(=O)(=O)N1CCc2c(c(-c3ccc(Cl)c(-c4cccc(C(=O)NCc5ncco5)c4)c3)nn2CCCN2CCCC2)C1 [Example 12, 2′-Chloro-5′-[5-methanesulfonyl-1-(3-pyrrolidin-1-yl-propyl)-4,5,6,7-tetrahydro-1H-pyrazolo[4,3-c]pyridin-3-yl]-biphenyl-3-carboxylic acid (oxazol-2-ylmethyl)-amide] | 240 nM |
| CS(=O)(=O)N1CCc2c(c(-c3ccc(Cl)c(-c4cccc(C(=O)NCc5nc6ccccc6s5)c4)c3)nn2CCCN2CCC(O)C2)C1 (centres unmarked) [Example 30, 2′-Chloro-5′-{1-[3-(3-hydroxy-pyrrolidin-1-yl)-propyl]-5-methanesulfonyl-4,5,6,7-tetrahydro-1H-pyrazolo[4,3-c]pyridin-3-yl}-biphenyl-3-carboxylic acid (benzothiazol-2-ylmethyl)-amide] | 325 nM |
| CN(C)S(=O)(=O)c1ccc2c(c1)N(CCNC(=O)c1cccc(-c3cc(-c4nn(CCCN5CCCC5)c5c4CN(S(C)(=O)=O)CC5)ccc3Cl)c1)CC2 [Example 11, 2′-Chloro-5′-[5-methanesulfonyl-1-(3-pyrrolidin-1-yl-propyl)-4,5,6,7-tetrahydro-1H-pyrazolo[4,3-c]pyridin-3-yl]-biphenyl-3-carboxylic acid [2-(6-dimethylsulfamoyl-2,3-dihydro-indol-1-yl)-ethyl]-amide] | 135 nM |
| CS(=O)(=O)N1CCc2c(c(-c3ccc(Cl)c(-c4cccc(C(=O)NCc5ncco5)c4)c3)nn2CCCN2CCC(N3CCCC3=O)CC2)C1 [Example 32, 2′-Chloro-5′-(5-methanesulfonyl-1-{3-[4-(2-oxo-pyrrolidin-1-yl)-piperidin-1-yl]-propyl}-4,5,6,7-tetrahydro-1H-pyrazolo[4,3-c]pyridin-3-yl)-biphenyl-3-carboxylic acid (oxazol-2-ylmethyl)-amide] | 264 nM |
| CC(NC(=O)c1cccc(-c2cc(-c3nn(CCCN4CCCC4)c4c3CN(S(C)(=O)=O)CC4)ccc2Cl)c1)c1nc2ccccc2[nH]1 (centres unmarked) [Example 18, 2′-Chloro-5′-[5-methanesulfonyl-1-(3-pyrrolidin-1-yl-propyl)-4,5,6,7-tetrahydro-1H-pyrazolo[4,3-c]pyridin-3-yl]-biphenyl-3-carboxylic acid [1-(1H-benzoimidazol-2-yl)-ethyl]-amide] | 22.6 nM |
